The assay has as its system left hemisphere of rat brains injected with Interleukin-1β (selectin expression). The assay can be described thus: MRI scans of rat brains after interleukin-1β injection into the left hemisphere. Particulars: in vivo. The procedure:
The magnetic particles of the present invention can be used in a number of different methods. In particular, sugars conjugated to ultra small super paramagnetic iron oxide provide more sensitive detection of cerebroendothelial cell activation than know contrast agents such as Gd-DTPA-B(sLEex)A. In particular conjugated magnetic particles in accordance with the present invention were used in MRI scans. Interleukin-1β was injected into the left hemisphere of rat brains. Interleukin beta was used to induce an inflammatory response in the left hemispheres. All samples were subjected to MRI scans. Controls were carried out using Gd alone, or superparamagnetic particles alone. Two different conjugates, one of which having a disaccharide and one of which having Sialyl Lewis X, both in accordance with the present invention were tested. […] The control with Gd (shown in FIG. 2) confirmed that there was no breakdown of the blood brain barrier. […] Thus, the conjugates of the present invention allowed imaging of the areas of the brain that had been injected with interleukin-1β, and which would be expected to show greater levels of selectin expression.

For Sialyl Lewis X, the “MRI scan: asymmetry between left and right cranial hemispheres” value was “asymmetry, being darker in the left hemisphere than the right”.

The record behind these values is patent US20080311048A1, “Imaging Agent” (ISIS INNOVATION LTD., priority 2005, published 2008).
